Measured values from ChEMBL document CHEMBL1201862, “PubChem BioAssay data set” (2004).
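Five concentrations, 48 hours, 96-well plates. GI50 marks 50% less growth.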 Calls of active or inactive are those of the source. No stated cut-off is given here; in the data, active = GI50 up to about 1.1 µM and inactive = higher.

What was measured:
Assay in all cases: growth of human tumour cells (NCI), 48 h
[1] = system: SF-539
[2] = system: CCRF-CEM
[3] = system: OVCAR-4
[4] = system: HOP-18
[5] = system: A549
[6] = system: KM-20L2
[7] = system: OVCAR-5
[8] = system: EKVX
[9] = system: 786-0
[10] = system: CAKI-1
[11] = system: M14
[12] = system: LXFL 529
[13] = system: OVCAR-3
[14] = system: UO-31
[15] = system: DMS-114
[16] = system: SF-268
[17] = system: LOX IMVI
[18] = system: SW-620
[19] = system: SK-MEL-5
[20] = system: TK-10
[21] = system: U-251
[22] = system: DLD-1
[23] = system: HCC 2998
[24] = system: SR
[25] = system: RXF 393
[26] = system: SNB-75
[27] = system: NCI-H460
[28] = system: M19-MEL
[29] = system: SK-MEL-2
[30] = system: XF498
[31] = system: IGROV-1
[32] = system: SN12C
[33] = system: SF-295
[34] = system: NCI-H23
[35] = system: HOP-92
[36] = system: HOP-62
[37] = system: Malme-3M
[38] = system: HL-60
[39] = system: NCI-H522
[40] = system: OVCAR-8
[41] = system: A498
[42] = system: ACHN
[43] = system: SNB-19
[44] = system: MOLT-4
[45] = system: SK-OV-3
[46] = system: NCI-H226
[47] = system: SNB-78
[48] = system: K562
[49] = system: DMS-273
[50] = system: HCT-15
[51] = system: UACC-257
[52] = system: KM12
[53] = system: RXF 631
[54] = system: SK-MEL-28
[55] = system: COLO 205
[56] = system: HCT-116
[57] = system: UACC-62

`COc1ccc(Nc2nc3c(N)cc(C(F)(F)F)cc3nc2-c2ccccc2)cc1` was tested, and the GI50 [1] was > 100 µM (inactive), the GI50 [2] was > 100 µM (inactive) and the GI50 [3] was 37.2 µM (inactive). The GI50 [4] was 36.7 µM (inactive), the GI50 [5] was > 100 µM (inactive) and the GI50 [6] was > 100 µM (inactive). For the same molecule, the GI50 [7] was > 100 µM (inactive), the GI50 [8] was 61.9 µM (inactive) and the GI50 [9] was 35.6 µM (inactive). For the same molecule, the GI50 [10] was > 100 µM (inactive), the GI50 [11] was 79.6 µM (inactive) and the GI50 [12] was 78.2 µM (inactive). The GI50 [13] was 33.6 µM (inactive), the GI50 [14] was > 100 µM (inactive) and the GI50 [15] was 80.7 µM (inactive). For the same molecule, the GI50 [16] was 75.7 µM (inactive), the GI50 [17] was > 100 µM (inactive) and the GI50 [18] was > 100 µM (inactive). The GI50 [19] was 57.1 µM (inactive), the GI50 [20] was > 100 µM (inactive) and the GI50 [21] was 83.2 µM (inactive). For the same molecule, the GI50 [22] was > 100 µM (inactive), the GI50 [23] was > 100 µM (inactive) and the GI50 [24] was 21.9 µM (inactive). For the same molecule, the GI50 [25] was 27.2 µM (inactive), the GI50 [26] was 28.8 µM (inactive) and the GI50 [27] was 60.4 µM (inactive). The GI50 [28] was > 100 µM (inactive), the GI50 [29] was 89.5 µM (inactive) and the GI50 [30] was 31.7 µM (inactive). For the same molecule, the GI50 [31] was 52 µM (inactive), the GI50 [32] was > 100 µM (inactive) and the GI50 [33] was 71.3 µM (inactive). The GI50 [34] was 69.7 µM (inactive), the GI50 [35] was 37.6 µM (inactive) and the GI50 [36] was 83.2 µM (inactive). For the same molecule, the GI50 [37] was 78.3 µM (inactive), the GI50 [38] was 16.9 µM (inactive) and the GI50 [39] was 44.3 µM (inactive). For the same molecule, the GI50 [40] was > 100 µM (inactive), the GI50 [41] was > 100 µM (inactive) and the GI50 [42] was > 100 µM (inactive). For the same molecule, the GI50 [43] was 71.6 µM (inactive), the GI50 [44] was > 100 µM (inactive) and the GI50 [45] was 83 µM (inactive). The GI50 [46] was 68.9 µM (inactive), the GI50 [47] was 60.4 µM (inactive) and the GI50 [48] was > 100 µM (inactive). For the same molecule, the GI50 [49] was > 100 µM (inactive), the GI50 [50] was over 100 µM and the GI50 [51] was > 100 µM (inactive). For the same molecule, the GI50 [52] was 83 µM (inactive), the GI50 [53] was 44.6 µM (inactive) and the GI50 [54] was > 100 µM (inactive). For the same molecule, the GI50 [55] was > 100 µM (inactive), the GI50 [56] was > 100 µM (inactive) and the GI50 [57] was > 100 µM (inactive).
